Assay results taken from patent US20250228835A1, “PYRIDINYLOXYPYRIDINES AND RELATED COMPOUNDS AND THEIR USE IN TREATING MEDICAL CONDITIONS” (Rectify Pharmaceuticals, Inc., priority 2024, published 2025).

Each compound was assayed against T1, ABCD2 WT (Homo sapiens, UniProt Q9UBJ2) (assay: D2 correction dose-response assay: ABCD2 WT HiBit protein expression). Settings: HEK-293/ABCD2 WT cells, 24 hours treatment, HiBit luminescence; class combines EC50 and Mean MaxAct (fold); read-out: ABCD2 WT EC50, Emax.
T1 construct: expressed in transfected cells
T1 sequence (Q9UBJ2 1-740): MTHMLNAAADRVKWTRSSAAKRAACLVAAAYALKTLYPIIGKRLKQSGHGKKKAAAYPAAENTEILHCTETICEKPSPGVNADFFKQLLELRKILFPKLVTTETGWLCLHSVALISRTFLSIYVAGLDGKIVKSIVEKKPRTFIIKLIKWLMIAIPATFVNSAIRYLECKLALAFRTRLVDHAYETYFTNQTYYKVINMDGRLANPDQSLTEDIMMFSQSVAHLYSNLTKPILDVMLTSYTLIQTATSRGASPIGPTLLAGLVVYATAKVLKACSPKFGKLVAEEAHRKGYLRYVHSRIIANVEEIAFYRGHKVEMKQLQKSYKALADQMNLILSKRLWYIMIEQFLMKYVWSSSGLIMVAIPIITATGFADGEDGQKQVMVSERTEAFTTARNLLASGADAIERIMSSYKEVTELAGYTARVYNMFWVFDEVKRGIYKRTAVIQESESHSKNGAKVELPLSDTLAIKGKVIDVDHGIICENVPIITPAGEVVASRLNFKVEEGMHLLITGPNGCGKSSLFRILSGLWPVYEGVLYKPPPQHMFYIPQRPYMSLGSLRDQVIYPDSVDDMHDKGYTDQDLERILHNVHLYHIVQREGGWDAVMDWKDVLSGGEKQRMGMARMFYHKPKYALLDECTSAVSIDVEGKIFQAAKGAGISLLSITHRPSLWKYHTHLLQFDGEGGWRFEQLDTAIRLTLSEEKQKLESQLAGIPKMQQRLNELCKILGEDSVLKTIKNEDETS
Type: cell-based
Summary of the method: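 HEK-293 cells stably expressing HiBit-tagged human ABCD2 WT were treated with 11 doses (3-fold dilutions, top final 30 μM, 0.3% DMSO) for 24 h at 37 °C. Expression was measured by HiBit lytic luminescence after 1 h at 25 °C, giving EC50 and Emax.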

SMILES	EC50
Cc1cc(C)c(Oc2nc(N3CC4CC3CN4C(=O)C3CC3)ccc2NS(C)(=O)=O)c(C)c1 (single isomer, unassigned) [Compound I-18]	> 25 µM
Cc1cc(C)c(Oc2nc(N3CC4CC3CN4C(=O)C3CC3)ccc2NS(C)(=O)=O)c(C)c1 (single isomer, unassigned) [Compound I-19]	> 25 µM
Cc1cc(C)c(Oc2nc(N3CCC(C#N)C3)ccc2NS(C)(=O)=O)c(C)c1 (single isomer, unassigned) [Compound I-261]	1 to 10 µM
Cc1cc(C)c(Oc2nc(N3CCC(C#N)C3)ccc2NS(C)(=O)=O)c(C)c1 (single isomer, unassigned) [Compound I-262]	1 to 10 µM
Cc1cc(C)c(Oc2nc(N3CCN(C(=O)C4CC4)CC3)ccc2NS(C)(=O)=O)c(C2CC2)n1 [Compound I-20]	10 to 25 µM
Cc1cc(C)c(Oc2nc(N3CCn4c(C)nnc4C3)ccc2NS(C)(=O)=O)c(C)c1 [Compound I-21]	> 25 µM
Cc1cc(C)c(Oc2nc(N3CC4CC(C3)N4C(=O)C3CC3)ccc2NS(C)(=O)=O)c(C)c1 [Compound I-22]	1 to 10 µM
Cc1cc(C)c(Oc2nc(N3CCN(C(=O)C4COC4)CC3)ccc2NS(C)(=O)=O)c(C)c1 [Compound I-23]	10 to 25 µM
Cc1cc(C)c(Oc2nc(N3CCN(C(=O)C4CCC4)CC3)ccc2NS(C)(=O)=O)c(C)c1 [Compound I-24]	1 to 10 µM
Cc1cc(C)c(Oc2nc(N3CCC4(CN(C(=O)C5CC5)C4)C3)ccc2NS(C)(=O)=O)c(C)c1 [Compound I-25]	1 to 10 µM
Cc1cc(C)c(Oc2nc(N3CCN(S(C)(=O)=O)CC3)ccc2NS(C)(=O)=O)c(C)c1 [Compound I-26]	1 to 10 µM
CNC(=O)N1CCN(c2ccc(NS(C)(=O)=O)c(Oc3c(C)cc(C)cc3C)n2)CC1 [Compound I-27]	> 25 µM
Cc1cc(C2CC2)nc(C)c1Oc1nc(N2CCN(C(=O)C3CC3)CC2)ccc1NS(C)(=O)=O [Compound I-28]	> 25 µM
Cc1cc(C)c(Oc2nc(-c3cncc(Cl)c3)ccc2NS(=O)(=O)C(C)C)c(C)c1 [Compound I-29]	> 25 µM
Cc1cc(C)c(Oc2nc(N3CCn4c(cnc4C)C3)ccc2NS(C)(=O)=O)c(C)c1 [Compound I-30]	1 to 10 µM
Cc1cc(C)c(Oc2nc(N3CC4(CCN(C(=O)C5CC5)C4)C3)ccc2NS(C)(=O)=O)c(C)c1 [Compound I-31]	> 25 µM
Cc1cc(C)c(Oc2nc(N3CCN(C(=O)OC(C)C)CC3)ccc2NS(C)(=O)=O)c(C)c1 [Compound I-32]	1 to 10 µM
Cc1cc(C)c(Oc2nc(N3CCN(C(=O)N(C)C)CC3)ccc2NS(C)(=O)=O)c(C)c1 [Compound I-33]	10 to 25 µM
Cc1cc(C)c(Oc2nc(N3CCN(C(=O)C(C)(C)C)CC3)ccc2NS(C)(=O)=O)c(C)c1 [Compound I-34]	> 25 µM
Cc1cc(C)c(Oc2nc(N3C4CC3CN(C(=O)C3CC3)C4)ccc2NS(C)(=O)=O)c(C)c1 [Compound I-35]	> 25 µM
Cc1cc(C)c(Oc2nc(-c3cnc(C#N)c(Cl)c3)ccc2NS(C)(=O)=O)c(C)c1 [Compound I-36]	< 1 µM
Cc1cc(C2CC2)nc(C)c1Oc1nc(-c2cncc(Cl)c2)ccc1NS(C)(=O)=O [Compound I-37]	< 1 µM
Cc1cc(C)c(Oc2nc(N3CC4(CN(C(=O)C5CC5)C4)C3)ccc2NS(C)(=O)=O)c(C)c1 [Compound I-38]	> 25 µM
Cc1cc(C)c(Oc2nc(-c3cncc(C#N)c3)ccc2NS(C)(=O)=O)c(C)c1 [Compound I-39]	< 1 µM
Cc1cc(C)c(Oc2nc(-c3cncc(Cl)c3)ccc2NS(C)(=O)=O)c(C2CC2)n1 [Compound I-40]	< 1 µM
Cc1cc(C)c(Oc2nc(-c3cncc(Cl)c3)ccc2NS(=O)(=O)C2COC2)c(C)c1 [Compound I-41]	< 1 µM
Cc1cc(C)c(Oc2nc(-c3cncc(Cl)c3)ccc2NS(=O)(=O)C2CC2)c(C)n1 [Compound I-238]	1 to 10 µM

SMILES	EC50
Cc1cc(C)c(Oc2nc(-c3ccnc(C#N)c3)ccc2NS(C)(=O)=O)c(C)n1 [Compound I-239]	< 1 µM
Cc1cc(C(F)(F)F)nc(C)c1Oc1nc(-c2cncc(C#N)c2)ccc1NS(C)(=O)=O [Compound I-240]	< 1 µM
Cc1cc(C)c(Oc2nc(-c3cccc(C#N)n3)ccc2NS(C)(=O)=O)c(C)n1 [Compound I-241]	10 to 25 µM
CCCS(=O)(=O)Nc1ccc(-c2cncc(C#N)c2)nc1Oc1c(C)cc(C)nc1C [Compound I-242]	> 25 µM
Cc1cc(C)c(Oc2nc(-c3cncc(C#N)c3)ccc2NS(=O)(=O)C2CCC2)c(C)n1 [Compound I-243]	10 to 25 µM
Cc1cc(C)c(Oc2nc(N3CCC(C#N)CC3)ccc2NS(C)(=O)=O)c(C)c1 [Compound I-244]	10 to 25 µM
Cc1cc(C)c(Oc2nc(-c3cncc(C#N)c3)ccc2S(=N)(=O)C2CC2)c(C)c1 (centres unmarked) [Compound I-245]	< 1 µM
Cc1cc(C)c(Oc2nc(-c3cncc(Cl)c3)ncc2NS(C)(=O)=O)c(C)n1 [Compound I-246]	< 1 µM
CCS(=O)(=O)Nc1ccc(-c2cncc(C#N)c2)nc1Oc1c(C)cc(C)nc1C [Compound I-247]	> 25 µM
Cc1cc(C)c(Oc2nc(-c3cncc(C#N)c3)ccc2S(=N)(=O)C2CC2)c(C)n1 (centres unmarked) [Compound I-248]	> 25 µM
Cc1cc(C)c(Oc2nc(-c3cncc(C#N)c3)ccc2S(C)(=N)=O)c(C)n1 (centres unmarked) [Compound I-249]	1 to 10 µM
Cc1cnc(Oc2nc(-c3cncc(C#N)c3)ccc2NS(C)(=O)=O)c(C)c1 [Compound I-250]	> 25 µM
Cc1cc(C2CC2)nc(C)c1Oc1nc(-c2cncc(C#N)c2)ccc1S(C)(=N)=O (centres unmarked) [Compound I-251]	> 25 µM
Cc1cc(C2CC2)nc(C)c1Oc1nc(-c2cncc(C#N)c2)ccc1NS(=O)(=O)C1CCC1 [Compound I-252]	1 to 10 µM
Cc1cc(C)c(Oc2nc(-c3cncc(C#N)c3)ccc2NS(=O)(=O)C2CCC2)c(C)c1 [Compound I-253]	1 to 10 µM
Cc1cc(C2CC2)nc(C)c1Oc1nc(-n2cnc(C#N)c2)ccc1NS(C)(=O)=O [Compound I-254]	< 1 µM
Cc1cc(C2CC2)nc(C)c1Oc1nc(-n2ccc(C#N)n2)ccc1NS(C)(=O)=O [Compound I-255]	1 to 10 µM
Cc1cc(C2CC2)nc(C)c1Oc1nc(-n2cc(C#N)cn2)ccc1NS(C)(=O)=O [Compound I-256]	1 to 10 µM
Cc1cc(C)c(Oc2nc(-n3ccc(C#N)n3)ccc2NS(C)(=O)=O)c(C)c1 [Compound I-257]	1 to 10 µM
Cc1cc(C)c(Oc2nc(-c3cncc(C#N)c3)ccc2S(N)(=O)=O)c(C)n1 [Compound I-258]	10 to 25 µM
Cc1cc(C)c(Oc2nc(-c3cncc(C#N)c3)cnc2NS(C)(=O)=O)c(C)n1 [Compound I-259]	1 to 10 µM
Cc1cc(C)c(Oc2nc(-c3cncc(Cl)c3)cnc2NS(C)(=O)=O)c(C)n1 [Compound I-260]	1 to 10 µM
Cc1cc(C2CC2)nc(C)c1Oc1nc(-c2cncc(S(C)(=O)=O)c2)ccc1NS(C)(=O)=O [Compound I-263]	1 to 10 µM
Cc1cc(C2CC2)nc(C)c1Oc1nc(-c2cncc(C#N)c2)ccc1NS(=O)(=O)C1CC1 [Compound I-264]	> 25 µM
CNS(=O)(=O)c1ccc(-c2cncc(C#N)c2)nc1Oc1c(C)cc(C)nc1C [Compound I-265]	1 to 10 µM
Cc1cc(C)c(Oc2nc(-c3cncc(C#N)c3)ccc2NS(=O)(=O)C2CC2)c(C)n1 [Compound I-266]	> 25 µM
